Assay [1] deals with P. aeruginosa PAO1 biofilm. Kind of assay: Minimum biofilm eradication concentration against established biofilm (FIG. 4). It counts as cell-based, Pseudomonas aeruginosa.
The test system of assay [2] is Burkholderia cepacia NCTC10744. The experiment in a line: MIC100 and FIC of cysteamine and tobramycin, MH broth (CLSI) and artificial sputum medium. It counts as cell-based. The following applies: read-out: MIC100, agent alone. The procedure:
(§1) Both the bacterial inoculum and the antimicrobial agents, including the compounds structurally related to cysteamine, were added simultaneously to the plates. The plates were incubated at 37° C. for 24 h and the optical density was read at 625 nm on a microtitre plate reader (BioTek Powerwave XS, Winooski, USA). The MIC was obtained as the lowest concentration of antimicrobial showing total inhibition of bacterial growth.
(§2) The FIC corresponds to an interaction coefficient indicating whether the combination of antimicrobial agents is synergistic, additive, antagonist or neutral. The FIC is determined by comparing the activity of an agent in combination (MIC of agent A+agent B) with the activity of the agent alone (MIC of agent A or agent B) as follow (Singh et al., 2000): FIC=MICA[combination]/MICA[alone]+MICB[combination]/MICB[alone]
(§3) The complex pathophysiology of CF is characterized by airway obstruction caused by abnormal mucus secretion and infection, with 60-80% of patients being chronically infected with the biofilm-forming bacteria Pseudomonas aeruginosa (George et al., 2009). With a prevalence of up to 10% in adult CF patients, B. cepacia complex is a rare but major concern due to its high virulence, morbidity and transmissibility (O'Malley, 2009; Brüssow, 2012). We tested the antimicrobial activity of cysteamine-tobramycin combinations in artificial sputum medium (Yang, et al., 2011) against 4 P. aeruginosa (PAO1, ATCC27853, DSMZ1128 and DSMZ1299) and 2 B. cepacia complex strains (NCTC10743 and NCTC10744).

For assay [3], the system named is Burkholderia cepacia NCTC10743. The description is as above. It counts as cell-based. As for the experimental part:
as §1, §2, §3

For assay [4], the system named is P. aeruginosa PAO1 planktonic cells. The experiment in a line: MIC in physiologically-relevant ionic concentrations (FIG. 7). The class given is cell-based, Pseudomonas aeruginosa. The following applies: in the presence of Ca2+ and in the presence of DNA. As for the experimental part: Bacterial growth was followed over a 24 h period and absorbance read using a BioTek microtitre plate reader at 625 nm. Total bacterial growth inhibition was retained in the presence of NaCl, CaCl2 or DNA and at two-fold the normal MIC100 in the presence of mucin. Tobramycin activity was inhibited in the presence of the divalent cation ca^2+ and in the presence of the anionic polymer DNA. […] A similar method as described above (1.4) was used for the determination of the antimicrobial activity of cysteamine (Lynovex®) in the presence of high ionic concentrations. […] Bacterial growth was followed over a 24 h period and absorbance read using a BioTek microtitre plate reader at 625 nm.

The subject of assay [5] is 4 P. aeruginosa (PAO1, ATCC27853, DSMZ1128 and DSMZ1299) and 2 B. cepacia complex strains (NCTC10743 and NCTC10744). Kind of assay: microbe, parasite or virus in culture. The class given is cell-based, Pseudomonas aeruginosa; Burkholderia cepacia complex. The following applies: all strains.
Excerpt: as §3

The next assay has as its system P. aeruginosa ATCC 27853. The experiment in a line: MIC and FIC of antibiotics with cysteamine, environments mimicking a CF lung. It counts as cell-based, Pseudomonas aeruginosa. As for the experimental part: as §1, §2
The range of concentrations of antimicrobial agents was 0-10 μg/ml.

Like-named read-outs stand apart in the source and are kept apart here. Where only a bound is given, the exact number is not on record here.

On to `NC[C@H]1O[C@H](O[C@H]2[C@H](O)[C@@H](O[C@H]3O[C@H](CO)[C@@H](O)[C@H](N)[C@H]3O)[C@H](N)C[C@@H]2N)[C@H](N)C[C@@H]1O` [Tobramycin, reference compound], for which the “minimum biofilm eradication concentration (MBEC), agent alone” value in assay [1] amounted to 4 µg/mL. Besides, the MIC in assay [2] (NCTC10744, B. cepacia NH10744, ASM (Artificial Sputum Medium)) was more than 16 µg/mL; in assay [2] (NCTC10744, B. cepacia NH10744, CLSI), more than 16 µg/mL; in assay [3] (NCTC10743, B. cepacia NCTC10743, FIG. 6, read-out: MIC100, agent alone) it was more than 16 µg/mL; in assay [3] (NCTC10743, B. cepacia NCTC10743, in both media (MH broth and ASM), FIG. 11, read-out: MIC100, agent alone), more than 16 µg/mL; in assay [3] (NCTC10743, B. cepacia NH10743, ASM (Artificial Sputum Medium), read-out: MIC100, agent alone), more than 16 µg/mL; in assay [3] (NCTC10743, B. cepacia NH10743, CLSI, read-out: MIC100, agent alone), more than 16 µg/mL. Moreover, the Tobramycin activity result in assay [4] was “inhibited”. The “tobramycin activity in the presence of cysteamine” value in assay [5] was “enhanced”. Moreover, the “MIC upon administration with cysteamine compared to administration alone” value with P. aeruginosa ATCC 27853 (environments mimicking those found in a CF lung) was “greatly reduced”. Moreover, the “antimicrobial effect in combination with cysteamine” value with P. aeruginosa ATCC 27853 (mucolytic environment) is “maintained”.

Source of the values: patent publication US11020414B2, “Antimicrobial compositions with cysteamine” (priority 2010, dated 2021).
